The test relates to human dermal fibroblasts. Kind of test: Human dermal fibroblast cells (hDFC) proliferation, cell viability assay (CellTiter-Glo, manual cell counting). Further: test concentration or dose not given here. The format is cell-based. The following applies: hDFCs proliferation; control is DMSO. A general note: In ATP-based viability assays light output follows the ATP content of the culture.
Take `Nn1c(SCC(=O)N2CCCCC2)nnc1-c1ccccc1` [I-2, 2-[(4-amino-5-phenyl-1,2,4-triazol-3-yl)sulfanyl]-1-piperidin-1-ylethanone]: the “Activity (Percent Increase Proliferation of hFDPCs (%))” value was “B (increased proliferation of hFDPCs equals to or larger than 1% and less than 4%)”.

On to `Cc1ccc(-c2nnc(SCC(=O)N3CCCC3)n2N)cc1` [I-3, 2-[[4-amino-5-(4-methylphenyl)-1,2,4-triazol-3-yl]sulfanyl]-1-pyrrolidin-1-ylethanone], for which the “Activity (Percent Increase Proliferation of hFDPCs (%))” value was “C (increased proliferation of hFDPCs equals to or larger than 4% and less than 8%)”.

With `Nn1c(SCC(=O)N2CCCC2)nnc1C1CCCCC1` [I-4, 2-[(4-amino-5-cyclohexyl-1,2,4-triazol-3-yl)sulfanyl]-1-pyrrolidin-1-ylethanone], the “Activity (Percent Increase Proliferation of hFDPCs (%))” value is “C (increased proliferation of hFDPCs equals to or larger than 4% and less than 8%)”.

On to `CCn1c(SCC(=O)N2CCCCCC2)nnc1-c1ccncc1` [I-5, 1-(azepan-1-yl)-2-[(4-ethyl-5-pyridin-4-yl-1,2,4-triazol-3-yl)sulfanyl]ethanone], for which the “Activity (Percent Increase Proliferation of hFDPCs (%))” value is “C (increased proliferation of hFDPCs equals to or larger than 4% and less than 8%)”.

Consider `C=CCn1c(SCC(=O)N2CCCCC2)nnc1-c1ccncc1` [I-6, 1-piperidin-1-yl-2-[(4-prop-2-enyl-5-pyridin-4-yl-1,2,4-triazol-3-yl)sulfanyl]ethanone], for which the “Activity (Percent Increase Proliferation of hFDPCs (%))” value was “C (increased proliferation of hFDPCs equals to or larger than 4% and less than 8%)”.

Consider `Cn1c(SCC(=O)N2CCCCC2)nnc1-c1ccccc1` [I-7, 2-[(4-methyl-5-phenyl-1,2,4-triazol-3-yl)sulfanyl]-1-piperidin-1-ylethanone], for which the “Activity (Percent Increase Proliferation of hFDPCs (%))” value is “B (increased proliferation of hFDPCs equals to or larger than 1% and less than 4%)”.

`CCCC(=O)NCc1ccc(OC)cc1` [II-2, N-[(4-methoxyphenyl)methyl]butanamide]: the “Activity (Percent Increase Proliferation of hFDPCs (%))” value is “B (increased proliferation of hFDPCs equals to or larger than 1% and less than 4%)”.

For `CCN(CC)CC(=O)NC(C)c1ccccc1` (centres unmarked) [II-3, 2-(diethylamino)-N-(1-phenylethyl)acetamide], the “Activity (Percent Increase Proliferation of hFDPCs (%))” value is on record as “A (increased proliferation of hFDPCs of less than 1%)”.

On to `CCC(=O)NC(C)c1ccccc1` (centres unmarked) [II-4, N-(1-phenylethyl)propanamide], for which the “Activity (Percent Increase Proliferation of hFDPCs (%))” value was “C (increased proliferation of hFDPCs equals to or larger than 4% and less than 8%)”.

`CC(C)CC(=O)NC(C)c1ccccc1` (centres unmarked) [II-5, 3-methyl-N-(1-phenylethyl)butanamide]: the “Activity (Percent Increase Proliferation of hFDPCs (%))” value is listed as “D (increased proliferation of hFDPCs equals to or larger than 8%)”.

As to `COc1ccc(CCCNC(=O)C(C)C)cc1` [II-6, N-[3-(4-methoxyphenyl)propyl]-2-methylpropanamide], the “Activity (Percent Increase Proliferation of hFDPCs (%))” value was “C (increased proliferation of hFDPCs equals to or larger than 4% and less than 8%)”.

`COc1ccc(CNC(=O)C(=O)NCCCn2ccnc2)cc1` [III-2, N-(3-imidazol-1-ylpropyl)-N′-[(4-methoxyphenyl)methyl]oxamide]: the “Activity (Percent Increase Proliferation of hFDPCs (%))” value is “D (increased proliferation of hFDPCs equals to or larger than 8%)”.

Regarding `COc1ccc(CNC(=O)C(=O)NC(C)c2ccccc2)cc1` (centres unmarked) [III-3, N-[(4-methoxyphenyl)methyl]-N′-(1-phenylethyl)oxamide], the “Activity (Percent Increase Proliferation of hFDPCs (%))” value was “B (increased proliferation of hFDPCs equals to or larger than 1% and less than 4%)”.

`CC(NC(=O)C(=O)NC(C)c1ccccc1)c1ccccc1` (centres unmarked) [III-4, N,N′-bis(1-phenylethyl)oxamide]: the “Activity (Percent Increase Proliferation of hFDPCs (%))” value was “B (increased proliferation of hFDPCs equals to or larger than 1% and less than 4%)”.

`COc1ccc(C(=O)NC(C(=O)NC(C)Cn2ccnc2)C(C)C)cc1` (centres unmarked) [III-5, N-[1-(1-imidazol-1-ylpropan-2-ylamino)-3-methyl-1-oxobutan-2-yl]-4-methoxybenzamide]: the “Activity (Percent Increase Proliferation of hFDPCs (%))” value was “B (increased proliferation of hFDPCs equals to or larger than 1% and less than 4%)”.

As for `COCCNC(=O)c1ccc2[nH]c3c(c2c1)CCCC3` [IV-3, N-(2-methoxyethyl)-6,7,8,9-tetrahydro-5H-carbazole-3-carboxamide], the “Activity (Percent Increase Proliferation of hFDPCs (%))” value was “D (increased proliferation of hFDPCs equals to or larger than 8%)”.

Turning to `CC(O)CNC(=O)c1ccc2[nH]c3c(c2c1)CCCC3` (centres unmarked) [IV-4, N-(2-hydroxypropyl)-6,7,8,9-tetrahydro-5H-carbazole-3-carboxamide], the “Activity (Percent Increase Proliferation of hFDPCs (%))” value was “C (increased proliferation of hFDPCs equals to or larger than 4% and less than 8%)”.

With `O=C(O)CN1CCC(NC(=O)C2CCCc3c2[nH]c2ccccc32)CC1` (centres unmarked) [IV-5, 2-[4-(2,3,4,9-tetrahydro-1H-carbazole-1-carbonylamino)piperidin-1-yl]acetic acid], the “Activity (Percent Increase Proliferation of hFDPCs (%))” value is listed as “D (increased proliferation of hFDPCs equals to or larger than 8%)”.

Regarding `O=C(O)CNC(=O)c1ccc2[nH]c3c(c2c1)CCCC3` [IV-6, 2-(6,7,8,9-tetrahydro-5H-carbazole-3-carbonylamino)acetic acid], the “Activity (Percent Increase Proliferation of hFDPCs (%))” value was “B (increased proliferation of hFDPCs equals to or larger than 1% and less than 4%)”.

`CC1=C(/C=C/C(C)=C/C=C/C(C)=C/CO)C(C)(C)CCC1` [Retinol, reference compound]: the “Activity (Percent Increase Proliferation of hFDPCs (%))” value is “B (increased proliferation of hFDPCs equals to or larger than 1% and less than 4%)”.

As to `CN(C)CCCn1c(=O)[nH]c2ccccc2c1=O` [V-2, 3-[3-(dimethylamino)propyl]-1H-quinazoline-2,4-dione], the “Activity (Percent Increase Proliferation of hFDPCs (%))” value is given as “A (increased proliferation of hFDPCs of less than 1%)”.

Take `CN(C)CCn1c(=O)[nH]c2ccccc2c1=O` [V-3, 3-[2-(dimethylamino)ethyl]-1H-quinazoline-2,4-dione]: the “Activity (Percent Increase Proliferation of hFDPCs (%))” value is listed as “A (increased proliferation of hFDPCs of less than 1%)”.

For the compound `COC(=O)Cn1c(=O)[nH]c2ccccc2c1=O` [V-4, methyl 2-(2,4-dioxo-1H-quinazolin-3-yl)acetate], the “Activity (Percent Increase Proliferation of hFDPCs (%))” value is recorded as “A (increased proliferation of hFDPCs of less than 1%)”.

As for `COCCOCCCn1c(=O)[nH]c2ccccc2c1=O` [V-5, 3-[3-(2-methoxyethoxy)propyl]-1H-quinazoline-2,4-dione], the “Activity (Percent Increase Proliferation of hFDPCs (%))” value is on record as “D (increased proliferation of hFDPCs equals to or larger than 8%)”.

In the case of `CC(NC(=O)CNC(=O)c1cccs1)c1ccccc1` (centres unmarked) [VI-1, N-[2-oxo-2-(1-phenylethylamino)ethyl]thiophene-2-carboxamide], the “Activity (Percent Increase Proliferation of hFDPCs (%))” value is recorded as “D (increased proliferation of hFDPCs equals to or larger than 8%)”.

For `Cc1ccsc1C(=O)NC(C)C` [VI-2, 3-methyl-N-propan-2-ylthiophene-2-carboxamide], the “Activity (Percent Increase Proliferation of hFDPCs (%))” value was “B (increased proliferation of hFDPCs equals to or larger than 1% and less than 4%)”.

On to `CNC(=O)C(CC(C)C)NC(=O)c1sccc1OC` (centres unmarked) [VI-3, 3-methoxy-N-[4-methyl-1-(methylamino)-1-oxopentan-2-yl]thiophene-2-carboxamide], for which the “Activity (Percent Increase Proliferation of hFDPCs (%))” value is given as “D (increased proliferation of hFDPCs equals to or larger than 8%)”.

Regarding `CCN1C(=S)N(C)NC1(C)C` [VII-1, 4-ethyl-2,5,5-trimethyl-1,2,4-triazolidine-3-thione], the “Activity (Percent Increase Proliferation of hFDPCs (%))” value is reported as “D (increased proliferation of hFDPCs equals to or larger than 8%)”.

`NN1CCNCC1` [VII-2, piperazin-1-amine]: the “Activity (Percent Increase Proliferation of hFDPCs (%))” value is “D (increased proliferation of hFDPCs equals to or larger than 8%)”.

Turning to `NC1CSCC1O` (centres unmarked) [VII-3, 4-aminothiolan-3-ol], the “Activity (Percent Increase Proliferation of hFDPCs (%))” value is given as “D (increased proliferation of hFDPCs equals to or larger than 8%)”.

In the case of `NC12CN3CN(CN(C3)C1)C2` [VII-4, 1,3,5-triazatricyclo[3.3.1.13,7]decan-7-amine], the “Activity (Percent Increase Proliferation of hFDPCs (%))” value is listed as “D (increased proliferation of hFDPCs equals to or larger than 8%)”.

For the compound `CC1=NN(C=O)C(C)(C)C1` [VII-5, 3,5,5-trimethyl-4H-pyrazole-1-carbaldehyde], the “Activity (Percent Increase Proliferation of hFDPCs (%))” value is “D (increased proliferation of hFDPCs equals to or larger than 8%)”.

With `CCOC(OCC)OCC` [VII-6, diethoxymethoxyethane], the “Activity (Percent Increase Proliferation of hFDPCs (%))” value is recorded as “D (increased proliferation of hFDPCs equals to or larger than 8%)”.

With `O[C@H]1CCNC[C@]12CCCNC2` [VII-7, (5S,6R)-2,8-diazaspiro[5.5]undecan-5-ol], the “Activity (Percent Increase Proliferation of hFDPCs (%))” value is recorded as “D (increased proliferation of hFDPCs equals to or larger than 8%)”.

Consider `CC1CNCCN1` (centres unmarked) [VII-8, 2-methylpiperazine], for which the “Activity (Percent Increase Proliferation of hFDPCs (%))” value is “D (increased proliferation of hFDPCs equals to or larger than 8%)”.

For the compound `CN1CCCNS1(=O)=O` [VII-9, 2-methyl-1,2,6-thiadiazinane 1,1-dioxide], the “Activity (Percent Increase Proliferation of hFDPCs (%))” value is reported as “D (increased proliferation of hFDPCs equals to or larger than 8%)”.

Regarding `CN(C)CN(C)C` [VII-11, N,N,N′,N′-tetramethylmethanediamine], the “Activity (Percent Increase Proliferation of hFDPCs (%))” value is listed as “D (increased proliferation of hFDPCs equals to or larger than 8%)”.

As for `Cc1c(Br)c([N+](=O)[O-])nn1CC(=O)N1CCCCCC1` [VII-12, 1-(azepan-1-yl)-2-(4-bromo-5-methyl-3-nitropyrazol-1-yl)ethanone], the “Activity (Percent Increase Proliferation of hFDPCs (%))” value is “C (increased proliferation of hFDPCs equals to or larger than 4% and less than 8%)”.

For the compound `COc1cc(OC)nc(OC)n1` [VII-14, 2,4,6-trimethoxypyrimidine], the “Activity (Percent Increase Proliferation of hFDPCs (%))” value is “B (increased proliferation of hFDPCs equals to or larger than 1% and less than 4%)”.

Consider `CC(N)c1nnnn1C` (centres unmarked) [VII-15, 1-(1-methyltetrazol-5-yl)ethanamine], for which the “Activity (Percent Increase Proliferation of hFDPCs (%))” value is on record as “D (increased proliferation of hFDPCs equals to or larger than 8%)”.

With `CN(C)c1ccccc1CN1CCCCC1C(=O)O` (centres unmarked) [VII-16, 1-[[2-(dimethylamino)phenyl]methyl]piperidine-2-carboxylic acid], the “Activity (Percent Increase Proliferation of hFDPCs (%))” value is “D (increased proliferation of hFDPCs equals to or larger than 8%)”.

For the origin of these results see patent US12564547B2, “Compositions, formulations, and methods for skin treatment” (Oddity Labs, LLC, priority 2022, dated 2026).
